{"source": "ChEMBL document CHEMBL4610075", "about": "“Isolation, Absolute Configuration, and Biological Activities of Chebulic Acid and Brevifolincarboxylic Acid Derivatives from Euphorbia hirta” (J Nat Prod, 2020)", "data": [{"tested_on": "BV-2", "test": "Antineuroinflammatory activity in mouse BV2 cells assessed as inhibition of LPS-induced NO production incubated for 24 hrs by Griess assay", "assay_type": "functional, cell-based", "conditions": "BV-2, 24 h", "units": {"IC50": "µM"}, "values": [{"smiles": "O=C1CCc2c1oc(=O)c1cc(O)c(O)c(O)c21", "IC50": 27}, {"smiles": "CCOC(=O)[C@H]1CC(=O)c2oc(=O)c3cc(O)c(O)c(O)c3c21", "IC50": 30.5}, {"smiles": "CN(C)c1ccc(O)c2c1C[C@H]1C[C@H]3[C@H](N(C)C)C(O)=C(C(N)=O)C(=O)[C@@]3(O)C(O)=C1C2=O", "note": "[MINOCYCLINE]", "IC50": 18.5}, {"smiles": "CCOC(=O)Cc1c2c3c(cc(O)c(O)c3oc1=O)C(=O)C2(O)C(=O)OCC", "note": "(racemic)", "IC50": 31.5}]}, {"tested_on": "not listed separately", "test": "Antioxidant activity assessed as DPPH radical scavenging activity after 30 mins", "assay_type": "functional", "conditions": "not given", "units": {"EC50": "µM"}, "values": [{"smiles": "CCOC(=O)/C=C(/C(=O)OC)[C@H]1c2c(cc(O)c(O)c2O)C(=O)O[C@@H]1C(=O)OCC", "EC50": 6}, {"smiles": "CCOC(=O)Cc1c2c3c(cc(O)c(O)c3oc1=O)C(=O)OC2C(=O)OCC", "note": "(racemic)", "EC50": 4.2}, {"smiles": "CCOC(=O)/C=C(/C(=O)OCC)[C@H]1c2c(cc(O)c(O)c2O)C(=O)O[C@@H]1C(=O)O", "EC50": 5.4}, {"smiles": "COC(=O)Cc1c2c3c(cc(O)c(O)c3oc1=O)C(=O)OC2", "EC50": 8}, {"smiles": "CCOC(=O)C[C@@H](C(=O)OCC)[C@H]1c2c(cc(O)c(O)c2O)C(=O)O[C@@H]1C(=O)OCC", "EC50": 6.8}, {"smiles": "CCOC(=O)Cc1c2c3c(cc(O)c(O)c3oc1=O)C(=O)OC2", "EC50": 2.2}, {"smiles": "O=C1C[C@H](C(=O)O)c2c1oc(=O)c1cc(O)c(O)c(O)c21", "EC50": 3}, {"smiles": "CCOC(=O)/C=C(/C(=O)O)[C@H]1c2c(cc(O)c(O)c2O)C(=O)O[C@@H]1C(=O)OCC", "EC50": 8.1}, {"smiles": "CCOC(=O)/C(=C/C(=O)O)[C@H]1c2c(cc(O)c(O)c2O)C(=O)O[C@@H]1C(=O)OCC", "EC50": 10.8}, {"smiles": "CCOC(=O)/C=C(/C(=O)OCC)[C@H]1c2c(cc(O)c(O)c2O)C(=O)O[C@@H]1C(=O)OC", "EC50": 4.4}, {"smiles": "CCOC(=O)C[C@@H](C(=O)O)[C@H]1c2c(cc(O)c(O)c2O)C(=O)O[C@@H]1C(=O)OCC", "EC50": 15.8}, {"smiles": "CCOC(=O)Cc1c2c3c(cc(O)c(O)c3oc1=O)C(=O)OC2C(=O)OC", "note": "(racemic)", "EC50": 6.5}, {"smiles": "O=C1CCc2c1oc(=O)c1cc(O)c(O)c(O)c21", "EC50": 7.6}, {"smiles": "CCOC(=O)C1(OCC)CC(=O)c2oc(=O)c3cc(O)c(O)c(O)c3c21", "note": "(racemic)", "EC50": 4}, {"smiles": "COC(=O)[C@H]1CC(=O)c2oc(=O)c3cc(O)c(O)c(O)c3c21", "EC50": 6}, {"smiles": "CCOC(=O)[C@H]1CC(=O)c2oc(=O)c3cc(O)c(O)c(O)c3c21", "EC50": 6.7}, {"smiles": "COC(=O)C1OC(=O)c2cc(O)c(O)c3oc(=O)c(CC(=O)O)c1c23", "note": "(racemic)", "EC50": 7.7}, {"smiles": "O=C(O)Cc1c2c3c(cc(O)c(O)c3oc1=O)C(=O)OC2", "EC50": 4.7}, {"smiles": "CCOC(=O)/C=C(/C(=O)OCC)[C@H]1c2c(cc(O)c(O)c2O)C(=O)O[C@@H]1C(=O)OCC", "EC50": 2.2}, {"smiles": "CCOC(=O)Cc1c2c3c(cc(O)c(O)c3oc1=O)C(=O)C2(O)C(=O)OCC", "note": "(racemic)", "EC50": 5.3}, {"smiles": "O=C1O[C@H]([C@@H](O)CO)C(O)=C1O", "note": "[ASCORBIC ACID]", "EC50": 9.2}, {"smiles": "CCOC(=O)C1OC(=O)c2cc(O)c(O)c3oc(=O)c(CC(=O)O)c1c23", "note": "(racemic)", "EC50": 9.9}, {"smiles": "CCOC(=O)[C@H]1CC(=O)c2c1c1c(O)c(O)c(O)cc1c(=O)n2CCCC(=O)OC", "EC50": 6.7}, {"smiles": "CCOC(=O)[C@H]1OC(=O)c2cc(O)c(O)c(O)c2[C@@H]1[C@@H](CC(=O)O)C(=O)OCC", "EC50": 8.1}]}]}
